# Values of other authors in US20100255080A1, “Liposomal ALA pharmaceutical and cosmeceutical compositions and methods of treatment” (SESVALIA USA, LLC, priority 2009, published 2010).
# Settings: printed as the pH near the pka
compound,measurement,value
"Cl.NCC(=O)CCC(=O)O [ALA, 5-aminolevulinic acid]",pka,about 4
